Experimental data: patent US7498349B2, “Biaryl compounds having anti-infective activity” (Genesoft Pharmaceuticals, Inc., priority 2002, dated 2009)

How the values were obtained:
E. faecalis ATCC 29212 = assay: MIC, NCCLS broth microdilution assay; type: cell-based, Enterococcus faecalis; conditions: E. faecalis ATCC 29212
B. cereus ATCC 11778 = assay: MIC, NCCLS broth microdilution assay; type: cell-based, Bacillus cereus; conditions: B. cereus ATCC 11778
S. aureus ATCC 13709 = assay: MIC, NCCLS broth microdilution assay; type: cell-based, Staphylococcus aureus; conditions: S. aureus ATCC 13709, methicillin sensitive strain (MSSA)
Excerpt: (§1) In vitro biological activity data were collected for a variety of microorganisms, including Bacillus cereus (ATCC 11778), Staphylococcus aureus (ATCC 33591; ATCC 27660, a methicillin resistant strain (MRSA); ATCC 13709, a methicillin sensitive strain (MSSA)), Escherichia coli (ATCC 25922), Enterococcus faecalis (ATCC 29212), Streptococcus pneumoniae (ATCC 49619; ATCC 51422, a penicillin resistant strain (PRSP)), Enterococcus faecium (ATCC 51559, a vancomycin resistant strain (VRE)), and Staphylococcus epidermidis (ATCC 12228).
(§2) The minimal inhibition concentration (MIC) of these compounds was determined using the National Committee for Clinical Laboratory Standards (NCCLS) broth microdilution assay in microtiter plates, as set forth in: (1) the guidelines of the National Committee for Clinical Laboratory Standards (NCCLS) Document M7-A4 (NCCLS, 1997); (2) the guidelines of the National Committee for Clinical Laboratory Standards (NCCLS) Document M11-A4 (NCCLS, 1997); and (3) the guidelines and reference method of the National Committee for Clinical Laboratory Standards (NCCLS) Document M27 -T (NCCLS, 1995).

S. pneumoniae ATCC 49619 = assay: MIC, NCCLS broth microdilution assay; type: cell-based, Streptococcus pneumoniae; conditions: S. pneumoniae ATCC 49619
E. coli ATCC 25922 = assay: MIC, NCCLS broth microdilution assay; type: cell-based, Escherichia coli; conditions: E. coli ATCC 25922
C. albicans ATCC 38247 = assay: MIC, antifungal assay; type: cell-based, Candida albicans; conditions: C. albicans ATCC 38247
S. aureus ATCC 27660 = assay: MIC, NCCLS broth microdilution assay; type: cell-based, Staphylococcus aureus; conditions: S. aureus ATCC 27660, methicillin resistant strain (MRSA)
Excerpt: as §1, §2

| SMILES | Minimum Inhibitory Concentration (MIC) (E. faecalis ATCC 29212) | Minimum Inhibitory Concentration (MIC) (B. cereus ATCC 11778) | Minimum Inhibitory Concentration (MIC) (S. aureus ATCC 13709) | Minimum Inhibitory Concentration (MIC) (S. pneumoniae ATCC 49619) | Minimum Inhibitory Concentration (MIC) (E. coli ATCC 25922) | Minimum Inhibitory Concentration (MIC) (C. albicans ATCC 38247) | Minimum Inhibitory Concentration (MIC) (S. aureus ATCC 27660) |
| --- | --- | --- | --- | --- | --- | --- | --- |
| O=C(Nc1ccc(-c2cc3ccccc3o2)cc1)c1nsc(NCCN2CCNCC2)c1Cl [Compound A-1] | +++ (MIC ≦ 4) | +++ (MIC ≦ 4) | +++ (MIC ≦ 4) | + (12 ≦ MIC ≦ 32) | >32 µg/mL | + (12 ≦ MIC ≦ 32) | +++ (MIC ≦ 4) |
| NCCCCNc1snc(C(=O)Nc2ccc(-c3cc4ccccc4o3)cc2)c1Cl [Compound A-4] | +++ (MIC ≦ 4) | + (12 ≦ MIC ≦ 32) | +++ (MIC ≦ 4) | >32 µg/mL | >32 µg/mL | + (12 ≦ MIC ≦ 32) | +++ (MIC ≦ 4) |
| CCN(CC)CCCNc1snc(C(=O)Nc2ccc(-c3cc4ccccc4o3)cc2)c1Cl [Compound A-5] | +++ (MIC ≦ 4) | ++ (4 < MIC < 12) | +++ (MIC ≦ 4) | >32 µg/mL | >32 µg/mL | ++ (4 < MIC < 12) | +++ (MIC ≦ 4) |
| NCCOCCOCCNc1snc(C(=O)Nc2ccc(-c3cc4ccccc4o3)cc2)c1Cl [Compound A-6] | +++ (MIC ≦ 4) | >32 µg/mL | +++ (MIC ≦ 4) | >32 µg/mL | >32 µg/mL | ++ (4 < MIC < 12) | +++ (MIC ≦ 4) |
| NCCCNc1ncccc1C(=O)Nc1ccc(-c2cc3ccccc3o2)cc1 [Compound A-9] | +++ (MIC ≦ 4) | +++ (MIC ≦ 4) | +++ (MIC ≦ 4) | + (12 ≦ MIC ≦ 32) | + (12 ≦ MIC ≦ 32) | + (12 ≦ MIC ≦ 32) | +++ (MIC ≦ 4) |
| O=C(Nc1ccc(-c2cc3ccccc3o2)cc1)c1cccnc1NCCN1CCNCC1 [Compound A-10] | + (12 ≦ MIC ≦ 32) | + (12 ≦ MIC ≦ 32) | – | + (12 ≦ MIC ≦ 32) | >32 µg/mL | >32 µg/mL | – |
| O=C(Nc1ccc(-c2cc3ccccc3o2)cc1)c1cccnc1NCCN1CCCCC1 [Compound A-13] | +++ (MIC ≦ 4) | +++ (MIC ≦ 4) | +++ (MIC ≦ 4) | + (12 ≦ MIC ≦ 32) | >32 µg/mL | + (12 ≦ MIC ≦ 32) | +++ (MIC ≦ 4) |
| O=C(Nc1ccc(-c2cc3ccccc3o2)cc1)c1cccnc1NCCN1CCSCC1 [Compound A-14] | >32 µg/mL | >32 µg/mL | >32 µg/mL | >32 µg/mL | >32 µg/mL | >32 µg/mL | >32 µg/mL |
| O=C(Nc1ccc(-c2cc3ccccc3o2)cc1)c1cccnc1NCCN1CCCC1 [Compound A-15] | +++ (MIC ≦ 4) | ++ (4 < MIC < 12) | +++ (MIC ≦ 4) | + (12 ≦ MIC ≦ 32) | >32 µg/mL | + (12 ≦ MIC ≦ 32) | +++ (MIC ≦ 4) |
